From US20170334899A1, “AMINO-SUBSTITUTED ISOTHIAZOLES” (Bayer Pharma Aktiengesellschaft, priority 2014, published 2017) come the findings set out here.

pIC50: −log10 of the molar value. Several values for one entry are separate records, joined by “and”; a condition that tells them apart may be missing. Equal entries are not always repeated.

Assay [1] addresses T1, catalytic domain of human Bub1 (amino acids 704-1085) (Homo sapiens, UniProt O43683).
T1 construct: catalytic domain of human Bub1 (amino acids 704-1085); His6 (N); made in house; host or cells: insect cells (Hi5)
Kind of assay: Bub1 kinase assay (TR-FRET). The class given is biochemical. The note with it: 10 μM ATP, avg, read-out: Bub1 avg (IC50 [mol/l]). In a few lines: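 Readout is the 665/620 nm TR-FRET ratio from anti-phosphoserine antibody, Eu-labelled anti-mouse IgG and streptavidin-XL665, scaled between no-enzyme and uninhibited controls. Reaction: 1 μM biotinylated peptide, 10 μM ATP, 60 min, 22 °C, after 15 min compound preincubation with His6-Bub1 (704-1085, insect-expressed, ~200 ng/ml).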

Assay [2] deals with HeLa. The assay is described as follows: Proliferation assay (crystal violet), HeLa. The class given is cell-based. The note with it: Homo sapiens, HeLa, 96 h, HeLa cells; 4 days incubation; crystal violet staining; read-out: IC50 inhibition of proliferation, HeLa. In short, it runs like this: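 Crystal violet proliferation readout, 4-day compound incubation, 0.001–10 μM, final DMSO 0.5%. Zero-point plate stained at time of dosing set as 0%, untreated control as 100%; IC50 via 4-parameter fit.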

T1 sequence (O43683 704-1085): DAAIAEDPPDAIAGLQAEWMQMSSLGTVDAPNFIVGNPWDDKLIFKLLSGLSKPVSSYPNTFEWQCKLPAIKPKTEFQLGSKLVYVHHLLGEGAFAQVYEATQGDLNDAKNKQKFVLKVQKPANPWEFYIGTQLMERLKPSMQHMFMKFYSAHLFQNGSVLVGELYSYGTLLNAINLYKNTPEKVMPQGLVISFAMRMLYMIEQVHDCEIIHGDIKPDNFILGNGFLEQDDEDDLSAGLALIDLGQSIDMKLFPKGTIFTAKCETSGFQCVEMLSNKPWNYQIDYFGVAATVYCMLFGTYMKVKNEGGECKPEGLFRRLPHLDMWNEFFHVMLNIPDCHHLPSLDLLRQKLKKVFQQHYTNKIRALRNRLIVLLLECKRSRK

As for `Cc1nsc(Nc2cnc3ccccc3n2)c1C(=O)Nc1ccc(NC2CCN(C(=O)OC(C)(C)C)CC2)nc1` [Example 234, tert-butyl 4-{[5-({[3-methyl-5-(quinoxalin-2-ylamino)-1,2-thiazol-4-yl]carbonyl}amino)pyridin-2-yl]amino}piperidine-1-carboxylate], the pIC50 in assay [1] was under 4.70; in assay [2] it was 5.02.

Take `Cc1nsc(Nc2cncc(C(F)(F)F)n2)c1C(=O)Nc1ccc(OC2CCN(C)CC2)nc1` [Example 219, 3-methyl-N-{6-[(1-methylpiperidin-4-yl)oxy]pyridin-3-yl}-5-{[6-(trifluoromethyl)pyrazin-2-yl]amino}-1,2-thiazole-4-carboxamide]: the figures for the pIC50 in assay [1] and in assay [2] were under 4.70 and under 5.00, respectively.

In the case of `CNC(=O)c1ccc(NC(=O)c2c(C)nsc2Nc2ccc(C#N)cn2)cc1F` [Example 208, 5-[(5-cyanopyridin-2-yl)amino]-N-[3-fluoro-4-(methylcarbamoyl)phenyl]-3-methyl-1,2-thiazole-4-carboxamide], the pIC50 in assay [1] is under 4.70; in assay [2] it was 5.22.

Take `COc1ccc(NC(=O)c2c(C)nsc2Nc2cnc3ccccc3n2)c(CC#N)n1` [Example 235, N-[2-(cyanomethyl)-6-methoxypyridin-3-yl]-3-methyl-5-(quinoxalin-2-ylamino)-1,2-thiazole-4-carboxamide]: the pIC50 in assay [1] was under 4.70; in assay [2], 5.68.

As to `CNS(=O)(=O)c1ccc(NC(=O)c2c(C)nsc2Nc2cncc(C(F)(F)F)n2)cc1` [Example 211, 3-methyl-N-[4-(methylsulfamoyl)phenyl]-5-{[6-(trifluoromethyl)pyrazin-2-yl]amino}-1,2-thiazole-4-carboxamide], the pIC50 in assay [1] is 5.37; in assay [2], 5.00.

With `CCN(CC)CCNC(=O)c1cccc(NC(=O)c2c(C)nsc2Nc2cnccn2)c1` [Example 247, N-(3-{[2-(diethylamino)ethyl]carbamoyl}phenyl)-3-methyl-5-(pyrazin-2-ylamino)-1,2-thiazole-4-carboxamide], the values for the pIC50 in assay [1] and in assay [2] were under 4.70 and under 5.00, respectively.

`Cc1nsc(Nc2cnc3ccccc3n2)c1C(=O)Nc1ccc(OC2CCNCC2)nc1` [Example 19, 3-Methyl-N-[6-(piperidin-4-yloxy)pyridin-3-yl]-5-(quinoxalin-2-ylamino)-1,2-thiazole-4-carboxamide]: the pIC50 in assay [1] is at most 4.70; in assay [2], 5.46.

Regarding `Cc1nsc(Nc2cncc(C(F)(F)F)n2)c1C(=O)Nc1ccc(OCC2CCN(C(=O)OC(C)(C)C)CC2)nc1` [Example 226, tert-butyl 4-{[(5-{[(3-methyl-5-{[6-(trifluoromethyl)pyrazin-2-yl]amino}-1,2-thiazol-4-yl)carbonyl]amino}pyridin-2-yl)oxy]methyl}piperidine-1-carboxylate], the pIC50 is under 4.70 in assay [1] and 6.04 in assay [2].

Turning to `Cc1nsc(Nc2ccc(C#N)cn2)c1C(=O)Nc1ccc(OCCC(=O)OC(C)(C)C)nc1` [Example 199, tert-butyl 3-({5-[({5-[(5-cyanopyridin-2-yl)amino]-3-methyl-1,2-thiazol-4-yl}carbonyl)amino]pyridin-2-yl}oxy)propanoate], the pIC50 is under 4.70 in assay [1] and 5.06 in assay [2].

In the case of `Cc1nsc(Nc2cnc3ccccc3n2)c1C(=O)Nc1ccc(NCCNC(=O)OC(C)(C)C)nc1` [Example 244, tert-butyl (2-{[5-({[3-methyl-5-(quinoxalin-2-ylamino)-1,2-thiazol-4-yl]carbonyl}amino)pyridin-2-yl]amino}ethyl)carbamate], the pIC50 is under 4.70 in assay [1] and 5.38 in assay [2].

Consider `Cc1nsc(Nc2cnc3ccccc3n2)c1C(=O)Nc1ccc(OCCC(=O)OC(C)(C)C)nc1` [Example 198, tert-butyl 3-{[5-({[3-methyl-5-(quinoxalin-2-ylamino)-1,2-thiazol-4-yl]carbonyl}amino)pyridin-2-yl]oxy}propanoate], for which the pIC50 in assay [1] was under 4.70; in assay [2], 5.17.

Consider `Cc1nsc(Nc2cncc(C(F)(F)F)n2)c1C(=O)Nc1ccc(C(=O)NC2CCN(C(=O)OC(C)(C)C)CC2)cc1` [Example 222, tert-butyl 4-[(4-{[(3-methyl-5-{[6-(trifluoromethyl)pyrazin-2-yl]amino}-1,2-thiazol-4-yl)carbonyl]amino}benzoyl)amino] piperidine-1-carboxylate], for which the pIC50 in assay [1] is under 4.70; in assay [2], 5.21.

For `Cc1nsc(Nc2cnc3ccccc3n2)c1C(=O)Nc1ccc(Oc2cccnc2)nc1` [Example 231, 3-methyl-N-[6-(pyridin-3-yloxy)pyridin-3-yl]-5-(quinoxalin-2-ylamino)-1,2-thiazole-4-carboxamide], the pIC50 in assay [1] is under 4.70; in assay [2], 5.74.

For the compound `Cc1nsc(Nc2cnc3ccccc3n2)c1C(=O)Nc1ccc(C(=O)OC(C)(C)C)cc1` [Example 181, tert-butyl 4-({[3-methyl-5-(quinoxalin-2-ylamino)-1,2-thiazol-4-yl]carbonyl}amino)benzoate], the pIC50 is under 4.70 in assay [1] and 6.01 in assay [2].

On to `Cc1nsc(Nc2cnc3ccccc3n2)c1C(=O)Nc1ccc(C(=O)O)cc1` [Example 187, 4-({[3-methyl-5-(quinoxalin-2-ylamino)-1,2-thiazol-4-yl]carbonyl}amino)benzoic acid], for which the results for the pIC50 in assay [1] and in assay [2] were 5.42 and under 5.00, respectively.

As for `CNC(=O)c1ccc(NC(=O)c2c(C)nsc2Nc2cnc3ccccc3n2)cc1F` [Example 207, N-[3-fluoro-4-(methylcarbamoyl)phenyl]-3-methyl-5-(quinoxalin-2-ylamino)-1,2-thiazole-4-carboxamide], the pIC50 in assay [1] was under 4.70; in assay [2] it was under 5.00.

As to `Cc1nsc(Nc2cncc(C(F)(F)F)n2)c1C(=O)Nc1ccc(OCCCNC(=O)OC(C)(C)C)nc1` [Example 190, tert-butyl {3-[(5-{[(3-methyl-5-{[6-(trifluoromethyl)pyrazin-2-yl]amino}-1,2-thiazoL-4-yl)carbonyl]amino}pyridin-2-yl)oxy]propyl}carbamate], the pIC50 was under 4.70 in assay [1] and 6.38 in assay [2].

For `Cc1nsc(Nc2cncc(C(F)(F)F)n2)c1C(=O)Nc1ccc(OC2CCN(CCF)CC2)c(F)c1` [Example 223, N-(3-fluoro-4-{[1-(2-fluoroethyl)piperidin-4-yl]oxy}phenyl)-3-methyl-5-{[6-(trifluoromethyl)pyrazin-2-yl]amino}-1,2-thiazole-4-carboxamide], the figures for the pIC50 in assay [1] and in assay [2] were under 4.70 and 6.12, respectively.

For `Cc1nsc(Nc2cnc3ccccc3n2)c1C(=O)Nc1ccc(OC2CCN(CC(F)F)CC2)nc1` [Example 20, N-(6-{[1-(2,2-difluoroethyl)piperidin-4-yl]oxy}pyridin-3-yl)-3-methyl-5-(quinoxalin-2-ylamino)-1,2-thiazole-4-carboxamide], the pIC50 in assay [1] was at most 4.70; in assay [2], 5.82.

For the compound `CC(=O)Nc1cc(NC(=O)c2c(C)nsc2Nc2cnccn2)ccc1F` [Example 205, N-(3-acetamido-4-fluorophenyl)-3-methyl-5-(pyrazin-2-ylamino)-1,2-thiazole-4-carboxamide], the pIC50 in assay [1] was under 4.70; in assay [2], under 5.00.

As for `Cc1nsc(Nc2cnc(C(F)(F)F)cn2)c1C(=O)Nc1ccc(OCC2CCN(C(=O)OC(C)(C)C)CC2)nc1` [Example 227, tert-butyl 4-{[(5-{[(3-methyl-5-{[5-(trifluoromethyl)pyrazin-2-yl]amino}-1,2-thiazol-4-yl)carbonyl]amino}pyridin-2-yl)oxy]methyl}piperidine-1-carboxylate], the pIC50 in assay [1] is under 4.70; in assay [2] it was 5.70.

With `Cc1nsc(Nc2cnc(C(F)(F)F)cn2)c1C(=O)Nc1ccc(OCCNC(=O)OC(C)(C)C)c(F)c1` [Example 215, tert-butyl [2-(2-fluoro-4-{[(3-methyl-5-{[5-(trifluoromethyl)pyrazin-2-yl]amino}-1,2-thiazol-4-yl)carbonyl]amino}phenoxy)ethyl]carbamate], the values for the pIC50 in assay [1] and in assay [2] were under 4.70 and 6.85, respectively.

Consider `Cc1nsc(Nc2cnc3ccccc3n2)c1C(=O)Nc1ccc(NCC2CCN(C(=O)OC(C)(C)C)CC2)nc1` [Example 238, tert-butyl 4-({[5-({[3-methyl-5-(quinoxalin-2-ylamino)-1,2-thiazol-4-yl]carbonyl}amino)pyridin-2-yl]amino}methyl)piperidine-1-carboxylate], for which the values for the pIC50 in assay [1] and in assay [2] were under 4.70 and 5.09, respectively.

Turning to `Cc1nsc(Nc2cncc(C(F)(F)F)n2)c1C(=O)Nc1ccc(F)c(C(N)=O)c1` [Example 204, N-(3-carbamoyl-4-fluorophenyl)-3-methyl-5-{[6-(trifluoromethyl)pyrazin-2-yl]amino}-1,2-thiazole-4-carboxamide], the pIC50 in assay [1] is < 4.70 and 4.80; in assay [2], under 5.00.

In the case of `Cc1nsc(Nc2cncc(C(F)(F)F)n2)c1C(=O)Nc1ccc(OCCNC(=O)OC(C)(C)C)nc1` [Example 191, tert-butyl {2-[(5-{[(3-methyl-5-{[6-(trifluoromethyl)pyrazin-2-yl]amino}-1,2-thiazol-4-yl)carbonyl]amino}pyridin-2-yl)oxy]ethyl}carbamate], the pIC50 in assay [1] was under 4.70; in assay [2], 5.80.
